Experimental data published in patent US20170137410A1, “FUSED CYCLOALKYL-PYRIMIDINE COMPOUNDS AND USES THEREOF” (Medivation Technologies, Inc., priority 2014, published 2017).

Assays:
FLT3 (ITD) = target: T1, FLT3 (ITD) (Homo sapiens, UniProt P36888); assay: HotSpot kinase assay against FLT3 (ITD); type: biochemical; conditions: HotSpot 33P assay, ATP 10 μM
T1 sequence (P36888 1-993): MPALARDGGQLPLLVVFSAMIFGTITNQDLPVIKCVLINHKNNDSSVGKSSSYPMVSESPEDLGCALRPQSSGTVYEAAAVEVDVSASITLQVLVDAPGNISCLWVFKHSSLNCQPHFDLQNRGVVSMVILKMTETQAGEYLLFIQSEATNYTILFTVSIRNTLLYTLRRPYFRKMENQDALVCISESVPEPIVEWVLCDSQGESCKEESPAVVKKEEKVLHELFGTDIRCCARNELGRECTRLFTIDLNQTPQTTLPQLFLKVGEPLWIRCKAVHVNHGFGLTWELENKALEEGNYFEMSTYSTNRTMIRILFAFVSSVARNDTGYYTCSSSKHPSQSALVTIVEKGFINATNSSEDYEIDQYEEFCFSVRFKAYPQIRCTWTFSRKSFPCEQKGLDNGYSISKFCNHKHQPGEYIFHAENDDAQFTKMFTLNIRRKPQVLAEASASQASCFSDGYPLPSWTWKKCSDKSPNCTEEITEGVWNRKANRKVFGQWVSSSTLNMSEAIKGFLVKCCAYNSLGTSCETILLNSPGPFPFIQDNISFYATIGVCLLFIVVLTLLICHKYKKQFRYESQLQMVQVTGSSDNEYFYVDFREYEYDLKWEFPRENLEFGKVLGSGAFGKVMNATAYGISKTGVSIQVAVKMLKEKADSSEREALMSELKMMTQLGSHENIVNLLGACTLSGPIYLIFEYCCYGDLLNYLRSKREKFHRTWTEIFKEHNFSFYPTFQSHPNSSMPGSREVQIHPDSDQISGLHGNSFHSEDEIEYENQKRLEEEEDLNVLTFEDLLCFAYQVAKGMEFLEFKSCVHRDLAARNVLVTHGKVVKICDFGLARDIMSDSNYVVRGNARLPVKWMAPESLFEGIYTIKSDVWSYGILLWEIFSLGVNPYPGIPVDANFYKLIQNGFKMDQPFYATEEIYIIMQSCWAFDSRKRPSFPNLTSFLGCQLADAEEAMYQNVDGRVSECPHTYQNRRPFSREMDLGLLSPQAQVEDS
Protocol: (§1) Kinase assays were performed using test compounds against a panel of FLT3 kinases: FLT3; FLT3 (D835Y); and FLT3 (ITD). Compounds were prepared as 10 mM stock solutions in DMSO prior to use in the assay. Each compound was tested at 10 concentrations with three-fold serial dilution starting at 1 μM against the three kinases. The control compound, staurosporine, was tested at 10 concentrations with four-fold serial dilution starting at 20 μM. IC50 values and curve fits were obtained using Prism (GraphPad Software). The screening was performed using the “HotSpot” assay platform. The assay measures the conversion of a peptide substrate to ^33P-labelled phosphorylated product. Briefly, specific kinase/substrate pairs along with required cofactors were prepared in reaction buffer. Specifically, the substrate was prepared in reaction buffer (20 mM Hepes, pH 7.5; 10 mM MgCl2; 1 mM EGTA; 0.02% Brij35; 0.02 mg/mL BSA; 0.1 mM Na3VO4; 2 mM DTT; 1% DMSO), followed by delivery of any required cofactor to the resulting substrate solution. The corresponding kinase was delivered into the substrate solution and the reaction mixture was mixed gently. Compound was delivered into the reaction mixture, followed 15-20 min later by addition of a mixture of ATP (Sigma, St. Louis Mo.) and ^33P ATP (specific activity 0.01 μCi/μL final; Perkin Elmer, Waltham, Mass.) to a final concentration of 10 μM to initiate the reaction. Reactions were carried out at RT for 120 min, followed by spotting of the reactions onto P81 ion exchange filter paper (Whatman #3698-915; Whatman Inc., Piscataway, N.J.). Unbound phosphate was removed by extensive washing of filters in 0.75% phosphoric acid. […] The percent of enzyme inhibition was calculated based on the percent of remaining kinase activity. IC50 values were determined.

FLT3 = target: T2, FLT3 (Homo sapiens, UniProt P36888); assay: HotSpot kinase assay against FLT3; type: biochemical; conditions: HotSpot 33P assay, ATP 10 μM
T2 sequence (P36888 27-993): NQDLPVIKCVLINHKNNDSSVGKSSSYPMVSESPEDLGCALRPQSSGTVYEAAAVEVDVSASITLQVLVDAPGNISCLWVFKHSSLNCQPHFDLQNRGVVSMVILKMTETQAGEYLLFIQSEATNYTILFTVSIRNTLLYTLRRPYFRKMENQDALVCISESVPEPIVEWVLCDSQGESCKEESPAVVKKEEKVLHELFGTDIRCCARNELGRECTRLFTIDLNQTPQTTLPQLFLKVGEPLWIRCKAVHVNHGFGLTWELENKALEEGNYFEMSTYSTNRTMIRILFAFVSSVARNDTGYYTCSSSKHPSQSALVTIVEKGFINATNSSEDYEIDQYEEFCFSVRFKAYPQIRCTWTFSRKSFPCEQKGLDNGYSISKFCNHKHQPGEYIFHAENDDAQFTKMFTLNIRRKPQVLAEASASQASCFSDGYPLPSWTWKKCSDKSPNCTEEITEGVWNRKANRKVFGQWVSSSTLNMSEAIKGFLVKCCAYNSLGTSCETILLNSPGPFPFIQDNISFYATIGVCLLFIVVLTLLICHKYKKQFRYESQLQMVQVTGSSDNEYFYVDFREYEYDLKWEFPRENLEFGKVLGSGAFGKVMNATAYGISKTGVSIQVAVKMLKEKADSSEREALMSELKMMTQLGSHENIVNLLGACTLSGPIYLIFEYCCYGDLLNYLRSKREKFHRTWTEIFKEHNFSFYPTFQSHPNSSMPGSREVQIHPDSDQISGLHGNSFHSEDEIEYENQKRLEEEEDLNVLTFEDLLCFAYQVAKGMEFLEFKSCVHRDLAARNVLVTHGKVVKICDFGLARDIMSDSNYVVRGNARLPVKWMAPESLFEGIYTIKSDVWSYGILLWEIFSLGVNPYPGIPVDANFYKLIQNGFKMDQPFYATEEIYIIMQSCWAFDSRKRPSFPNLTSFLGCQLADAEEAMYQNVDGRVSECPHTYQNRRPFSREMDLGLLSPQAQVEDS
Protocol: as §1

Row | Compound | IC50 (FLT3 (ITD)) [nM] | IC50 (FLT3) [nM]
1 | CC1(C(=O)N2CCC(F)(F)CC2)CCCN1c1nc2c(c(Nc3cc(C4CCCC4)[nH]n3)n1)CCC2 (racemic) [compound 146, (1-(4-((5-cyclopentyl-1H-pyrazol-3-yl)amino)-6,7-dihydro-5H-cyclopenta[d]pyrimidin-2-yl)-2-methylpyrrolidin-2-yl)(4,4-difluoropiperidin-1-yl)methanone] | 1480 | 798
2 | CC(C)c1cc(Nc2nc(N3CCC[C@H]3C(=O)N(C)c3nccs3)nc3c2CCC3)n[nH]1 [68b, (S)-1-(4-((5-isopropyl-1H-pyrazol-3-yl)amino)-6,7-dihydro-5H-cyclopenta[d]pyrimidin-2-yl)-N-methyl-N-(thiazol-2-yl)pyrrolidine-2-carboxamide] | 167 | 112
3 | CC(C)(C)c1cc(Nc2nc(N3CCC[C@@H]3C(=O)N3CCC(F)(F)CC3)nc3c2CCC3)n[nH]1 [142a, (R)-(1-(4-((5-(tert-butyl)-1H-pyrazol-3-yl)amino)-6,7-dihydro-5H-cyclopenta[d]pyrimidin-2-yl)pyrrolidin-2-yl)(4,4-difluoropiperidin-1-yl)methanone] | > 1000 | > 1000
4 | CC(C)(C)c1cc(Nc2nc(N3CCC[C@H]3C(=O)N3CCC(F)(F)CC3)nc3c2CCC3)n[nH]1 [142b, (S)-(1-(4-((5-(tert-butyl)-1H-pyrazol-3-yl)amino)-6,7-dihydro-5H-cyclopenta[d]pyrimidin-2-yl)pyrrolidin-2-yl)(4,4-difluoropiperidin-1-yl)methanone] | > 1000 | > 1000
5 | CCC(=O)N1CCN(C(=O)[C@H]2CCCN2c2nc3c(c(Nc4cc(C5CCCC5)[nH]n4)n2)CCC3)CC1 [143a, 1-(4-((4-((5-cyclopentyl-1H-pyrazol-3-yl)amino)-6,7-dihydro-5H-cyclopenta[d]pyrimidin-2-yl)-D-prolyl)piperazin-1-yl)propan-1-one] | 13.7 | 13.9
6 | CCC(=O)N1CCN(C(=O)[C@@H]2CCCN2c2nc3c(c(Nc4cc(C5CCCC5)[nH]n4)n2)CCC3)CC1 [143b, (S)-1-(4-((4-((5-cyclopentyl-1H-pyrazol-3-yl)amino)-6,7-dihydro-5H-cyclopenta[d]pyrimidin-2-yl)prolyl)piperazin-1-yl)propan-1-one] | 310 | 58
7 | CCN(C(=O)[C@@H]1CCCN1c1nc2c(c(Nc3cc(C(C)(C)C)[nH]n3)n1)CCC2)c1nccs1 [144b, (S)-1-(4-((5-(tert-butyl)-1 H-pyrazol-3-yl)amino)-6,7-dihydro-5H-cyclopenta[d]pyrimidin-2-yl)-N-ethyl-N-(thiazol-2-yl)pyrrolidine-2-carboxamide] | > 1000 | > 1000
8 | CCN(C(=O)[C@@H]1CCCN1c1nc2c(c(Nc3cc(C(C)C)[nH]n3)n1)CCC2)c1nccs1 [145b, (S)—N-ethyl-1-(4-((5-isopropyl-1H-pyrazol-3-yl)amino)-6,7-dihydro-5H-cyclopenta[d]pyrimidin-2-yl)-N-(thiazol-2-yl)pyrrolidine-2-carboxamide] | 435 | 155
